# Tests used:
# [1] = tested on: HPK1; conditions: tested at 1 μM; cited from earlier work
# [2] = target: TRKC (Homo sapiens, UniProt Q16288); conditions: tested at 1 μM; cited from earlier work
# [3] = tested on: CDK11; conditions: tested at 1 μM; cited from earlier work
# [4] = Aqueous solubility by solution turbidity; type: physicochemical
# [5] = tested on: breast epithelial cells; conditions: cited from earlier work
# [6] = tested on: BPTF; conditions: cited from earlier work
# [7] = target: T1, CDKL2 (Homo sapiens, UniProt Q92772); conditions: tested at 1 μM; cited from earlier work
# T1 sequence (Q92772 1-493): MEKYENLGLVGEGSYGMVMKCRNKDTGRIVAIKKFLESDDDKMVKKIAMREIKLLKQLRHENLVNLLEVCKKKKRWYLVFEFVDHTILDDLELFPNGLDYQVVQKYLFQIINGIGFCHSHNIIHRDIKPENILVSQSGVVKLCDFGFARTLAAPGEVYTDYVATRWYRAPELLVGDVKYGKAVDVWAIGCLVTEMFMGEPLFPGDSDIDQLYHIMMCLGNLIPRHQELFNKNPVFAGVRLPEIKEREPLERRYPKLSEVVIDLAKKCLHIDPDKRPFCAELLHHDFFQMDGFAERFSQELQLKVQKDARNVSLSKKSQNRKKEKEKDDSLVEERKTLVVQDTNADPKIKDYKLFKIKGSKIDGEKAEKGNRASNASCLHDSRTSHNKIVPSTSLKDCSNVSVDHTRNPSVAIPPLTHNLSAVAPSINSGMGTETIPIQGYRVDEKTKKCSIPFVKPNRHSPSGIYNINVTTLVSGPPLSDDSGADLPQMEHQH
# [8] = tested on: parasite; conditions: cited from earlier work
# [9] = tested on: p38-δ; conditions: tested at 1 μM; cited from earlier work
# [10] = tested on: TRKB; conditions: tested at 1 μM; cited from earlier work
# [11] = target: BPTF bromodomain (Homo sapiens, UniProt Q12830); assay: PrOF NMR binding to 5FW-labeled BPTF bromodomain; conditions: 5FW BPTF bromodomain, 19F resonance of W2824
# Chain of TRKC (Q16288 32-839): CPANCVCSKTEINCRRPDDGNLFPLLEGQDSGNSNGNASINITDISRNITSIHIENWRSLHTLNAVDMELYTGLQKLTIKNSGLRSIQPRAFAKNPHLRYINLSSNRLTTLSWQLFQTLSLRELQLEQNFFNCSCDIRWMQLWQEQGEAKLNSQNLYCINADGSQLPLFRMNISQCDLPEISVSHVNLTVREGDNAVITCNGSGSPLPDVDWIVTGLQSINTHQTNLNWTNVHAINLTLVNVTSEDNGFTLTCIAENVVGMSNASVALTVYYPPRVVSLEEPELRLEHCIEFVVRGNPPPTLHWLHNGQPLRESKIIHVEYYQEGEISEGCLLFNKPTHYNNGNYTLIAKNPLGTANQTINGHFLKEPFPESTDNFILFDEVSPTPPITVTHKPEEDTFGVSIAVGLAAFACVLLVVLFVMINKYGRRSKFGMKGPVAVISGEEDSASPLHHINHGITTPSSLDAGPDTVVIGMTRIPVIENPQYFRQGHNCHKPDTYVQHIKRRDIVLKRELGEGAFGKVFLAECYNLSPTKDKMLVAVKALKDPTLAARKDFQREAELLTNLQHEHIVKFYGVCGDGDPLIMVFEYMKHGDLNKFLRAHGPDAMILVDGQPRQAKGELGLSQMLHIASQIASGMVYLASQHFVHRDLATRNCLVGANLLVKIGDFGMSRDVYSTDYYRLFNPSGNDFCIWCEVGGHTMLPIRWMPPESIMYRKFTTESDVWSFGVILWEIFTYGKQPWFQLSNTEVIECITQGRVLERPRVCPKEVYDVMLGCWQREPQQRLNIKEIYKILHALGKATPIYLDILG
structure (smiles),measurement,setting,value
COC(=O)c1cccc(NC(=O)NC2CCN(c3ccnc(Nc4ccc(F)cc4)n3)C2)c1 (racemic) [rac-1],inhibition of HPK1,[1],51–68%
same,inhibition of TRKC,[2],82%
same,inhibition of CDK11,[3],51–68%
same,solubility (concentration above which solution turbidity increases),[4],~ 100 μM
same,effects in breast epithelial cells,[5],"decreased c-MYC regulated genes, c-MYC chromatin occupancy, and led to G1 cell cycle arrest"
same,transcription in a BPTF-specific reporter assay,[6],reducing transcription
same,inhibition of CDKL2,[7],82%
same,antimalarial activity,[8],has shown antimalarial activity
same,inhibition of p38-δ,[9],51–68%
same,inhibition of TRKB,[10],51–68%
same,PrOF NMR binding behaviour of the 5FW BPTF resonance,[11],significant broadening of the fluorine resonance

# Reference: paper PMC6374164 (Organic & biomolecular chemistry, 2019)
